# Data reported in US7405240B2, “Substituted cyclopentanes or cyclopentanones as therapeutic agents” (Allergan, Inc., priority 2006, dated 2008).
# Experiments:
# hEP2 [1] = molecular target: T1, hEP2 (Homo sapiens, UniProt P43116); assay: cAMP assay, hEP2; format: cell-based
# hEP4 [2] = molecular target: T2, hEP4 (Homo sapiens, UniProt P35408); assay: Radioligand binding, EP4 receptor; set-up: expressed in transfected cells; host or cells: HEK-293; details: [3H]PGE2, HEK-293 cells expressing EP4
# T2 sequence (P35408 whole entry): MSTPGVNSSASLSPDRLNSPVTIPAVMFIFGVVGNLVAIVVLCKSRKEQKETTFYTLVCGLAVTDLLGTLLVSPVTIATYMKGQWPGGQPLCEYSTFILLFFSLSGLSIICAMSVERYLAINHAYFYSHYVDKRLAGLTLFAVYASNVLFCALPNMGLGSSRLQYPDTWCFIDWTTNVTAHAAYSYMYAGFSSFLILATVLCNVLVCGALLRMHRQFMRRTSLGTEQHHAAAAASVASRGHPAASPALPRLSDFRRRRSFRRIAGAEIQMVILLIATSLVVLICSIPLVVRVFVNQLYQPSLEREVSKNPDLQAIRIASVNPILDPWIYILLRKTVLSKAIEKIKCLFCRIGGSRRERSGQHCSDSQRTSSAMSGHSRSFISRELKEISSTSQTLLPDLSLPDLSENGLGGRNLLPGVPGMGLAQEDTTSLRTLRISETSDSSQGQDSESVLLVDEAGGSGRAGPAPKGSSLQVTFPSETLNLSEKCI
# Method: (§1) HEK-293 cells stably expressing the human or feline FP receptor, or EP1, EP2, or EP4 receptors were washed with TME buffer, scraped from the bottom of the flasks, and homogenized for 30 sec using a Brinkman PT 10/35 polytron. TME buffer was added to achieve a final 40 ml volume in the centrifuge tubes (the composition of TME is 100 mM TRIS base, 20 mM MgCl2, […]; 10N HCl is added to achieve a pH of 7.4).
# (§2) The cell homogenate was centrifuged at 19000 r.p.m. for 20 min at 4° C. using a Beckman Ti-60 rotor. The resultant pellet was resuspended in TME buffer to give a final 1 mg/ml protein concentration, as determined by Biorad assay. Radioligand binding competition assays vs. [3H-] 17-phenyl PGF2, (5 nM) were performed in a 100 μl volume for 60 min. Binding reactions were started by adding plasma membrane fraction. The reaction was terminated by the addition of 4 ml ice-cold TRIS-HCl buffer and rapid filtration through glass fiber GF/B filters using a Brandel cell harvester. The filters were washed 3 times with ice-cold buffer and oven dried for one hour.
# (§3) [^3H-] PGE2 (specific activity 180 Ci mmol) was used as the radioligand for EP receptors. [^3H] 17-phenyl PGF2, was employed for FP receptor binding studies. Binding studies employing EP1, EP2, EP4 and FP receptors were performed in duplicate in at least three separate experiments. A […] assay volume was used. Incubations were for 60 min at 25° C. and were terminated by the addition of 4 ml of ice-cold 50 mM TRIS-HCl, followed by rapid filtration through Whatman GF/B filters and three additional 4 ml washes in a cell harvester (Brandel). Competition studies were performed using a final concentration of 5 nM [^3H]-PGE2, or 5 nM [^3H] 17-phenyl PGF2, and non-specific binding determined with 10^−5M of unlabeled PGE2, or 17-phenyl PGF2α, according to receptor subtype studied.
# hEP4 [3] = molecular target: T2, hEP4; assay: FLIPR calcium signal, hEP4; format: cell-based; set-up: expressed in transfected cells; host or cells: HEK-293(EBNA); details: HEK-293(EBNA) cells expressing hEP4/Gqs5
# Method: (§4) Methods for FLIPR™ Studies
# (§5) HEK-293(EBNA) cells, stably expressing one type or subtype of recombinant human prostaglandin receptors (prostaglandin receptors expressed: hDP/Gqs5; hEP1; hEP2/Gqs5; hEP3A/Gqi5; hEP4/Gqs5; hFP; hIP; hTP), were cultured in 100 mm culture dishes in high-glucose DMEM medium containing 10% fetal bovine serum, 2 mM 1-glutamine, 250 μg/ml geneticin (G418) and 200 μg/ml hygromycin B as selection markers, and 100 units/ml penicillin G, 100 μg/ml streptomycin and 0.25 μg/ml amphotericin B.
# (§6) Cells were seeded at a density of 5×10^4 cells per well in Biocoat® Poly-D-lysine-coated black-wall, clear-bottom 96-well plates (Becton-Dickinson) and allowed to attach overnight in an incubator at 37° C. Cells were then washed two times with HBSS-HEPES buffer (Hanks Balanced Salt Solution without bicarbonate and phenol red, 20 mM HEPES, pH 7.4) using a Denley Cellwash plate washer (Labsystems). After 45 minutes of dye-loading in the dark, using the calcium-sensitive dye Fluo-4 AM at a final concentration of 2 μM, plates were washed four times with HBSS-HEPES buffer to remove excess dye leaving 100 μl in each well. Plates were re-equilibrated to 37° C. for a few minutes.
# (§7) Cells were excited with an Argon laser at 488 nm, and emission was measured through a 510-570 nm bandwidth emission filter (FLIPR™, Molecular Devices, Sunnyvale, Calif.). Drug solution was added in a 50 μl volume to each well to give the desired final concentration. The peak increase in fluorescence intensity was recorded for each well. On each plate, four wells each served as negative (HBSS-HEPES buffer) and positive controls (standard agonists: BW245C (hDP); PGE2 (hEP1; hEP2/Gqs5; hEP3A/Gqi5; hEP4/Gqs5); PGF2α (hFP); carbacyclin (hIP); U-46619 (hTP), depending on receptor). The peak fluorescence change in each drug-containing well was then expressed relative to the controls.
# (§8) Compounds were tested in a high-throughput (HTS) or concentration-response (CoRe) format. In the HTS format, forty-four compounds per plate were examined in duplicates at a concentration of 10^−5 M. To generate concentration-response curves, four compounds per plate were tested in duplicates in a concentration range between 10^−5 and 10^−11 M. The duplicate values were averaged. In either, HTS or CoRe format each compound was tested on at least 3 separate plates using cells from different passages to give an n≧3.
# hEP2 [4] = molecular target: T1, hEP2; assay: Competition binding, [3H]PGE2, human EP2 receptors; set-up: expressed in transfected cells; host or cells: HEK 293; details: [3H]PGE2, HEK 293 cells stably expressing human EP2; read-out: hEP2 Ki
# Method: Competition binding experiments were performed in a medium containing Hank's balanced salt solution, Hepes 20 mM, pH 7.3, membranes (˜60 μg protein) or 2×10^5 cells from HEK 293 cells stably expressing human EP2 receptors, [^3H]PGE2 (10 nM) and various concentrations of test compounds in a total volume of 300 μl. Reaction mixtures were incubated at 23° C. for 60 min, and were filtered over Whatman GF/B filters under vacuum. Filters were washed three times with 5 ml ice-cold buffer containing 50 mM Tris/HCl (pH 7.3). Non-specific binding was estimated in the presence of excess unlabeled PGE2 (10 μM). Binding data fitted to the binding model for a single class of binding sites, using nonlinear regression analysis. IC50 values thus obtained were converted to Ki using the equation of Ki=(IC50/(1+[L]/KD) where [L] represents PGE2 concentration (10 nM) and KD the dissociation constant for [^3H]PGE2 at human EP2 receptors (40 nM).
# as §1, §2, §3
# hEP2 [5] = molecular target: T1, hEP2; assay: FLIPR calcium signal, hEP2; format: cell-based; set-up: expressed in transfected cells; host or cells: HEK-293(EBNA); details: HEK-293(EBNA) cells expressing hEP2/Gqs5
# Method: as §4, §5, §6, §7, §8
# T1 sequence (P43116 whole entry): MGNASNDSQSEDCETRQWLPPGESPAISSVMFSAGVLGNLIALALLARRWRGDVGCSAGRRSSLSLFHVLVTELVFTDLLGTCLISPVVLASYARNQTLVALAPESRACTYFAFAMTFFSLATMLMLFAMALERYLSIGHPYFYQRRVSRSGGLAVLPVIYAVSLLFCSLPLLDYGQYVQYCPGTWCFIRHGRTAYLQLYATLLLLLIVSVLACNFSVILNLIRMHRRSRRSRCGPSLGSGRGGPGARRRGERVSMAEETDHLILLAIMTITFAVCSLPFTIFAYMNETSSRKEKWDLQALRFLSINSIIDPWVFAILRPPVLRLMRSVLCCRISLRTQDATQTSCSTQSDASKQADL
Compound,EC50 (hEP2 [1]) [nM],Ki (hEP4 [2]) [nM],EC50 (hEP4 [3]) [nM],Ki (hEP2 [4]) [nM],EC50 (hEP2 [5]) [nM]
"O=C(O)CCCCCC[C@@H]1[C@@H](COc2cc(C(F)(F)F)cc(C(F)(F)F)c2)[C@H](O)C[C@H]1Cl [Example 16, (Z)-7-[(1R,2S,3R,5R)-2-(3,5-Bis-trifluoromethyl-phenoxymethyl)-5-chloro-3-hydroxy-cyclopentyl]-heptanoic acid]",40,4110,13100,45,100
"CC(=O)OCc1cc(Cl)cc(OC[C@@H]2[C@@H](C/C=C\CCCC(=O)O)[C@H](Cl)C[C@H]2O)c1 [Example 64, (Z)-7-[(1R,2S,3R,5R)-2-(3-Acetoxymethyl-5-chloro-phenoxymethyl)-5-chloro-3-hydroxy-cyclopentyl]-hept-5-enoic acid]",6.5,381,7450,65,1110
"Cc1cccc(OC[C@@H]2[C@@H](C/C=C\CCCC(=O)O)[C@H](Cl)C[C@H]2O)c1 [Example 25, (Z)-7-((1R,2S,3R,5R)-5-Chloro-3-hydroxy-2-m-tolyloxymethyl-cyclopentyl)-hept-5-enoic acid]",9,1840,13000,155,112
"O=C(O)CCC/C=C\C[C@@H]1[C@@H](COc2cc(C(F)(F)F)cc(Cl)c2F)[C@H](O)C[C@H]1Cl [Example 41, (Z)-7-[(1R,2S,3R,5R)-5-Chloro-2-(3-chloro-2-fluoro-5-trifluoromethyl-phenoxymethyl)-3-hydroxy-cyclopentyl]-hept-5-enoic acid]",1.3,1710,> 10000,16,13
"O=C(O)CCC/C=C\C[C@@H]1[C@@H](COc2ccc(Cl)cc2)[C@H](O)C[C@H]1Cl [Example 23, (Z)-7-[(1R,2S,3R,5R)-5-Chloro-2-(4-chloro-phenoxymethyl)-3-hydroxy-cyclopentyl]-hept-5-enoic acid]",10,3220,2860,32,45
"Cc1cccc(C)c1OC[C@@H]1[C@@H](C/C=C\CCCC(=O)O)[C@H](Cl)C[C@H]1O [Example 35, (Z)-7-[(1R,2S,3R,5R)-5-Chloro-2-(2,6-dimethyl-phenoxymethyl)-3-hydroxy-cyclopentyl]-hept-5-enoic acid]",3350,> 10000,> 10000,4320,5580
"O=C(O)CCC/C=C\C[C@@H]1[C@@H](COc2cccc(OC(=O)c3ccccc3)c2)[C@H](O)C[C@H]1Cl [Example 29, 3-[(1S,2R,3R,5R)-2-((Z)-6-carboxy-hex-2-enyl)-3-chloro-5-hydroxy-cyclopentylmethoxy]-phenyl benzoate]",139,2380,7680,568,1580
"O=C(O)CCC/C=C\C[C@@H]1[C@@H](COc2cccc3c2CCCC3O)[C@H](O)C[C@H]1Cl (stereo partly drawn) [Example 60, (Z)-7-[(1R,2S,3R,5R)-5-Chloro-3-hydroxy-2-(5-hydroxy-5,6,7,8-tetrahydro-naphthalen-1-yloxymethyl)-cyclopentyl]-hept-5-enoic acid]",1,1440,6970,86,17
"O=C(O)CCC/C=C\C[C@@H]1[C@@H](COc2cc(Cl)cc(CO)c2)[C@H](O)C[C@H]1Cl [Example 65, (Z)-7-[(1R,2S,3R,5R)-5-Chloro-2-(3-chloro-5-hydroxymethyl-phenoxymethyl)-3-hydroxy-cyclopentyl]-hept-5-enoic acid]",2,497,10600,64,520
"O=C(O)CCC/C=C\C[C@@H]1[C@@H](COc2ccccc2Cl)[C@H](O)C[C@H]1Cl [Example 21, (Z)-7-[(1R,2S,3R,5R)-5-Chloro-2-(2-chloro-phenoxymethyl)-3-hydroxy-cyclopentyl]-hept-5-enoic acid]",37,5010,449,303,26
"Cc1ccc(OC[C@@H]2[C@@H](C/C=C\CCCC(=O)O)[C@H](Cl)C[C@H]2O)cc1C [Example 37, (Z)-7-[(1R,2S,3R,5R)-5-Chloro-2-(3,4-dimethyl-phenoxymethyl)-3-hydroxy-cyclopentyl]-hept-5-enoic acid]",27,1100,> 10000,50,618
"O=C(O)CCC/C=C\C[C@@H]1[C@@H](COc2cccc(Cl)c2)[C@H](O)C[C@H]1Cl [Example 22, (Z)-7-[(1R,2S,3R,5R)-5-Chloro-2-(3-chloro-phenoxymethyl)-3-hydroxy-cyclopentyl]-hept-5-enoic acid]",5,> 10000,823,43,18
"O=C(O)CCC/C=C\C[C@@H]1[C@@H](COc2ccc(Cl)c3ccccc23)[C@H](O)C[C@H]1Cl [Example 40, (Z)-7-[(1R,2S,3R,5R)-5-Chloro-2-(4-chloro-naphthalen-1-yloxymethyl)-3-hydroxy-cyclopentyl]-hept-5-enoic acid]",0.7,491,5890,2,29
"Cc1cccc(OC[C@@H]2[C@@H](C/C=C\CCCC(=O)O)[C@H](Cl)C[C@H]2O)c1C [Example 32, (Z)-7-[(1R,2S,3R,5R)-5-Chloro-2-(2,3-dimethyl-phenoxymethyl)-3-hydroxy-cyclopentyl]-hept-5-enoic acid]",3,1320,> 10000,122,61
